Key:
[1] = xn = mol fraction of the nth substance listed; conditions: 101 kPa, Liquid; for speed of sound: Sing-around technique in a fixed-path interferometer
[2] = 101 kPa, Liquid; for speed of sound: Sing-around technique in a fixed-path interferometer

Cc1ccc(C)cc1 [1,4-dimethylbenzene] + COC(C)(C)C
[1], x2 = 0
Conditions | mass density [kg/m3] | speed of sound [m/s]
288.15 K | 865.354 | 1347.9
290.65 K | 863.184 | 1336.9
293.15 K | 861.015 | 1326.1
295.65 K | 858.846 | 1315.6
298.15 K | 856.675 | 1305.4
300.65 K | 854.501 | 1295.3
303.15 K | 852.326 | 1285.4
305.65 K | 850.148 | 1275.6
308.15 K | 847.969 | 1266.1
310.65 K | 845.784 | 1256.4
313.15 K | 843.599 | 1246.8
315.65 K | 841.41 | 1237.6
318.15 K | 839.22 | 1228.1
320.65 K | 837.031 | 1220.5
323.15 K | 834.849 | 1211

Cc1cccc(C)c1 [1,3-dimethylbenzene]
[2]
Conditions | mass density [kg/m3] | speed of sound [m/s]
288.15 K | 868.459 | 1362.7
290.65 K | 866.318 | 1352.1
293.15 K | 864.177 | 1341.7
295.65 K | 862.035 | 1331.3
298.15 K | 859.89 | 1320.9
300.65 K | 857.742 | 1310.6
303.15 K | 855.593 | 1300.3
305.65 K | 853.441 | 1290
308.15 K | 851.282 | 1279.8
310.65 K | 849.122 | 1269.6
313.15 K | 846.958 | 1259.5
315.65 K | 844.792 | 1249.3
318.15 K | 842.622 | 1239.3
320.65 K | 840.452 | 1229.3
323.15 K | 838.289 | 1219.5

Cc1ccccc1C [1,2-dimethylbenzene]
[2]
Conditions | mass density [kg/m3] | speed of sound [m/s]
288.15 K | 883.36 | 1381.3
290.65 K | 881.265 | 1371.8
293.15 K | 879.168 | 1362.2
295.65 K | 877.069 | 1351.8
298.15 K | 874.968 | 1341.5
300.65 K | 872.865 | 1331.2
303.15 K | 870.759 | 1321
305.65 K | 868.65 | 1310.8
308.15 K | 866.538 | 1300.7
310.65 K | 864.422 | 1290.6
313.15 K | 862.302 | 1280.6
315.65 K | 860.179 | 1270.5
318.15 K | 858.054 | 1260.6
320.65 K | 855.927 | 1250.7
323.15 K | 853.803 | 1240.9

COC(C)(C)C [2-methoxy-2-methylpropane]
[2]
Conditions | mass density [kg/m3] | speed of sound [m/s]
288.15 K | 744.861 | 1083.4
290.65 K | 742.259 | 1071.6
293.15 K | 739.654 | 1060
295.65 K | 737.036 | 1048.5
298.15 K | 734.406 | 1036.9
300.65 K | 731.766 | 1025.4
303.15 K | 729.112 | 1013.9
305.65 K | 726.444 | 1002.4
308.15 K | 723.763 | 990.99
310.65 K | 721.069 | 979.62
313.15 K | 718.357 | 968.16
315.65 K | 715.636 | 956.8
318.15 K | 712.897 | 945.54
320.65 K | 710.141 | 934.24
323.15 K | 707.381 | 922.97

Cc1cccc(C)c1 [1,3-dimethylbenzene] + CCOC(C)(C)C
[1], x2 = 0
Conditions | mass density [kg/m3] | speed of sound [m/s]
288.15 K | 868.459 | 1362.7
290.65 K | 866.318 | 1352.1
293.15 K | 864.177 | 1341.7
295.65 K | 862.035 | 1331.3
298.15 K | 859.89 | 1320.9
300.65 K | 857.742 | 1310.6
303.15 K | 855.593 | 1300.3
305.65 K | 853.441 | 1290
308.15 K | 851.282 | 1279.8
310.65 K | 849.122 | 1269.6
313.15 K | 846.958 | 1259.5
315.65 K | 844.792 | 1249.3
318.15 K | 842.622 | 1239.3
320.65 K | 840.452 | 1229.3
323.15 K | 838.289 | 1219.5

Cc1ccccc1C [1,2-dimethylbenzene] + CCOC(C)(C)C
[1], x2 = 0
Conditions | mass density [kg/m3] | speed of sound [m/s]
288.15 K | 883.36 | 1381.3
290.65 K | 881.265 | 1371.8
293.15 K | 879.168 | 1362.2
295.65 K | 877.069 | 1351.8
298.15 K | 874.968 | 1341.5
300.65 K | 872.865 | 1331.2
303.15 K | 870.759 | 1321
305.65 K | 868.65 | 1310.8
308.15 K | 866.538 | 1300.7
310.65 K | 864.422 | 1290.6
313.15 K | 862.302 | 1280.6
315.65 K | 860.179 | 1270.5
318.15 K | 858.054 | 1260.6
320.65 K | 855.927 | 1250.7
323.15 K | 853.803 | 1240.9

CCOC(C)(C)C [2-ethoxy-2-methylpropane]
[2]
Conditions | mass density [kg/m3] | speed of sound [m/s]
288.15 K | 744.955 | 1076.4
290.65 K | 742.482 | 1065.1
293.15 K | 739.947 | 1053.7
295.65 K | 737.374 | 1042.2
298.15 K | 734.806 | 1031
300.65 K | 732.225 | 1019.8
303.15 K | 729.647 | 1008.6
305.65 K | 727.038 | 997.52
308.15 K | 724.443 | 986.39
310.65 K | 721.826 | 975.42
313.15 K | 719.179 | 964.53
315.65 K | 716.527 | 953.54
318.15 K | 713.96 | 942.67
320.65 K | 711.25 | 931.73
323.15 K | 708.642 | 920.73

Cc1ccc(C)cc1 [1,4-dimethylbenzene]
[2]
Conditions | mass density [kg/m3] | speed of sound [m/s]
288.15 K | 865.354 | 1347.9
290.65 K | 863.184 | 1336.9
293.15 K | 861.015 | 1326.1
295.65 K | 858.846 | 1315.6
298.15 K | 856.675 | 1305.4
300.65 K | 854.501 | 1295.3
303.15 K | 852.326 | 1285.4
305.65 K | 850.148 | 1275.6
308.15 K | 847.969 | 1266.1
310.65 K | 845.784 | 1256.4
313.15 K | 843.599 | 1246.8
315.65 K | 841.41 | 1237.6
318.15 K | 839.22 | 1228.1
320.65 K | 837.031 | 1220.5
323.15 K | 834.849 | 1211

Cc1ccc(C)cc1 [1,4-dimethylbenzene] + CCOC(C)(C)C
[1], x2 = 0
Conditions | mass density [kg/m3] | speed of sound [m/s]
288.15 K | 865.354 | 1347.9
290.65 K | 863.184 | 1336.9
293.15 K | 861.015 | 1326.1
295.65 K | 858.846 | 1315.6
298.15 K | 856.675 | 1305.4
300.65 K | 854.501 | 1295.3
303.15 K | 852.326 | 1285.4
305.65 K | 850.148 | 1275.6
308.15 K | 847.969 | 1266.1
310.65 K | 845.784 | 1256.4
313.15 K | 843.599 | 1246.8
315.65 K | 841.41 | 1237.6
318.15 K | 839.22 | 1228.1
320.65 K | 837.031 | 1220.5
323.15 K | 834.849 | 1211

COC(C)(C)C [2-methoxy-2-methylpropane] + Cc1ccccc1C
[1], x1 = 1
Conditions | mass density [kg/m3] | speed of sound [m/s]
288.15 K | 744.861 | 1083.4
290.65 K | 742.259 | 1071.6
293.15 K | 739.654 | 1060
295.65 K | 737.036 | 1048.5
298.15 K | 734.406 | 1036.9
300.65 K | 731.766 | 1025.4
303.15 K | 729.112 | 1013.9
305.65 K | 726.444 | 1002.4
308.15 K | 723.763 | 990.99
310.65 K | 721.069 | 979.62
313.15 K | 718.357 | 968.16
315.65 K | 715.636 | 956.8
318.15 K | 712.897 | 945.54
320.65 K | 710.141 | 934.24
323.15 K | 707.381 | 922.97

COC(C)(C)C [2-methoxy-2-methylpropane] + Cc1cccc(C)c1
[1], x1 = 1
Conditions | mass density [kg/m3] | speed of sound [m/s]
288.15 K | 744.861 | 1083.4
290.65 K | 742.259 | 1071.6
293.15 K | 739.654 | 1060
295.65 K | 737.036 | 1048.5
298.15 K | 734.406 | 1036.9
300.65 K | 731.766 | 1025.4
303.15 K | 729.112 | 1013.9
305.65 K | 726.444 | 1002.4
308.15 K | 723.763 | 990.99
310.65 K | 721.069 | 979.62
313.15 K | 718.357 | 968.16
315.65 K | 715.636 | 956.8
318.15 K | 712.897 | 945.54
320.65 K | 710.141 | 934.24
323.15 K | 707.381 | 922.97

Reference: the NIST ThermoML archive (doi:10.1016/j.fluid.2008.03.004)
